Measured values taken from US12011433B2 (UNIVERSITÁ DEGLI STUDI DI BARI “ALDO MORO”, priority 2016, dated 2024).
Marks after values point to notes of the source that are not given here.

Key:
Iba-1 = assay: microglial activation in LPS-treated mice, Iba-1 immunoreactivity and immunoblotting; format: in vivo
Method: The protein concentration in the supernatant was spectrophotometrically determined by Bradford's protein assay (Bradford, 1976). […] Proteins (25 μg/lane) and prestained standards (BioRad Laboratories, Hercules, CA, USA) were loaded on 7% or 12% SDS precast polyacrylamide gels (BioRad Laboratories). After electrophoresis, the resolved proteins were transferred from the gel to nitrocellulose membranes. A blotting buffer [20 mMTris/150 mM glycine, pH=8.0, 20% (v/v) methanol] was used for gel and membrane saturation and blotting. […] Bands were visualized by chemiluminescence detection (Invitrogen, Milan, Italy). The β-actin level was used as a protein loading control. For tissue analysis, obtained bands were normalized to the level of β-actin performed for each cerebral area tested. For cell cultures the bands were normalized to the β-actin level in each experimental condition. […] VM in all the Figures) once a day for 10 days. […] On the seventh day, mice were anesthetized with tribromoethanol (250 mg/Kg, i.p.) and positioned in a stereotactic apparatus (Kopf Instruments, Tujunga, CA, USA). […] Immunohistochemistry was performed following a standard avidin-biotin complex procedure. […]

COX-2 = COX-2 (Mus musculus (Mouse), UniProt Q05769); assay: COX-2 expression in brain regions of LPS-treated mice, immunoblotting; format: in vivo; details: for COX-2 expression reduction (%): mofezolac 6 mg/kg i.p.
Method: (§1) Substantia nigra pars compacta (SNpc), Hippocampus, Frontal lobe and Caudate from mice brains were minced in ice-cold PBS, washed and then homogenized in a buffer containing lysis buffer (50 mM Tris pH 8, 0.02 g/mL NaCl, 0.2% SDS, 1% Triton-X, 4 U/ml aprotinin, 2 mM leupeptin, 100 mM phenylmethanesulfonyl fluoride).
(§2) The tissue and cell culture lysates were vortexed for 15-20 s and, then, centrifuged at 12,800×g for 20 min. The protein concentration in the supernatant was spectrophotometrically determined by Bradford's protein assay (Bradford, 1976). Protein samples were diluted with sample buffer (0.5 M Tris-HCl pH=6.8, 10% glycerol, 10% (w/v) SDS, 5% 2-mercaptoethanol, 0.05% (w/v) bromophenol blue) and then boiled for 3 min. Proteins (25 μg/lane) and prestained standards (BioRad Laboratories, Hercules, CA, USA) were loaded on 7% or 12% SDS precast polyacrylamide gels (BioRad Laboratories).
(§3) After electrophoresis, the resolved proteins were transferred from the gel to nitrocellulose membranes. A blotting buffer [20 mMTris/150 mM glycine, pH=8.0, 20% (v/v) methanol] was used for gel and membrane saturation and blotting. Then, membranes were incubated in the dark with 1 μg/mL mouse monoclonal antibody (MoAb) anti-COX-1 and rabbit polyclonal Ab anti-COX-2 (1:1000) (both from AbCam, Cambridge, UK), rabbit polyclonal Ab anti p-IkB-α (1:200), mouse polyclonal Ab anti β-actin (1:500) (all from Santa Cruz Biotechnology), mouse MoAb anti-glial fibrillary acidic protein (GFAP) (1:200) and mouse mAb anti-ionized calcium-binding adapter molecule-1 (Iba-1) (1:200) (both from Merck Millipore) overnight at 4° C. The membranes were washed with 0.1% Tween 20-PBS (for 20 min, 3 times) and then incubated with the secondary antibody diluted 1:2000 for 60 min. Bands were visualized by chemiluminescence detection (Invitrogen, Milan, Italy). The β-actin level was used as a protein loading control. For tissue analysis, obtained bands were normalized to the level of β-actin performed for each cerebral area tested. For cell cultures the bands were normalized to the β-actin level in each experimental condition.
(§4) On the seventh day, mice were anesthetized with tribromoethanol (250 mg/Kg, i.p.) and positioned in a stereotactic apparatus (Kopf Instruments, Tujunga, CA, USA). […] Sterotaxic injections coordinates were: 2.3 mm dorsal/ventral, 1.0 mm lateral, and 0.5 mm anterior/posterior from the bregma.

PGE2 = PGE2 release in brain specimens from LPS-treated mice; format: in vivo; details: for PGE2 release reduction (%): LPS-treated mice, mofezolac 6 mg/kg i.p.; for PGE2 release (ng/mg tissue): LPS or M+LPS treated mice
Method: as §4
Microglial cells were cultured in 6-well plates at a density of 3×10^6 cells/well. […] The cultures were maintained at 37° C. for 24 and 48 h in a humidified air containing a 5% CO2. PGE2 levels were determined in the supernatant using a competitive binding immunoassay (Cayman Chemical, Ann Arbor, MI, USA) following the manufacturer's instructions. Unstimulated cells were included as a control. PGE2 amount determination in the brain was performed in the tissue extracts, according to the manufacturer's instructions. The optical density was measured at λ=405-420 nm with precision microplate reader and the amount of PGE2 (ng/mL) was calculated using a PGE2 standard curve.

[1] = Caco-2 monolayer efflux assay, Apparent Permeability (Papp), with or without GLUT-1 inhibitor phloretin; format: in vitro ADME, Human; details: human, compound alone
Method: (§5) In a monolayer efflux assay, the Apparent Permeability (Papp) in both basolateral to apical [Papp(B→A)] and apical to basolateral [Papp(A→B)] directions was determined for each compound (FIG. 2). Human colonic adenocarcinoma cell line (Caco-2) presents a facilitated transport system at the apical and basolateral surface. Caco-2 cells express high levels of GLUT-1 that are localized to the basolateral membrane and transport glucose to the serosal side.
(§6) The Papp(B→A) flux of each compound alone or in the presence of phloretin, a GLUT-1 inhibitor, has been determined. Since GLUT-1 is express in the basolateral compartment a high B→A flux means that the transport is GLUT-1 mediated because B→A flux represents the active transport.
(§7) A→B flux, which represents the passive transport, has also been determined for each compound (Table 2).

Caco-2 cells = assay: as above; format: in vitro ADME, Human; details: compound alone
Method: as §5, §6, §7

COX-1 = COX-1 (Mus musculus (Mouse), UniProt P22437); assay: COX-1 expression in brain regions of LPS-treated mice, immunoblotting; format: in vivo; details: for COX-1 expression reduction (%): LPS-treated mice, mofezolac 6 mg/kg i.p.
Method: as §1, §2, §3, §4

COX-2 expression reduction (%) (COX-2; Caudate): 0%
COX-2 expression reduction (%) (COX-2; Frontal lobe): 0%
COX-2 expression reduction (%) (COX-2; Hippocampus): 0%
COX-2 expression reduction (%) (COX-2; Substantia nigra): 0%
effect on COX-2 modulation (COX-2; all tested brain regions): no effect
Papp B→A [1]: 46.1 ×10⁻⁶ cm/s
Papp A→B (Caco-2 cells): 41.4 ×10⁻⁶ cm/s
Papp B→A (Caco-2 cells): 46.1 ×10⁻⁶ cm/s
COX-1 expression reduction (%) (COX-1; Caudate): 95%
COX-1 expression reduction (%) (COX-1; Frontal lobe): 94%
COX-1 expression reduction (%) (COX-1; Hippocampus): 82%
COX-1 expression reduction (%) (COX-1; Substantia nigra): 89%
Structure (SMILES): COc1ccc(-c2noc(CC(=O)O)c2-c2ccc(OC)cc2)cc1 [mofezolac, 2-(3,4-bis(4-methoxyphenyl)isoxazol-5-yl)acetic acid]
Iba-1 levels (Iba-1; immunoblotting, mofezolac + LPS vs LPS alone): significantly reduced
Iba-1 immunoreactivity (Iba-1; immunohistochemistry, LPS-injected mice, mofezolac 6 mg/kg i.p., all the tested brain areas): reduction of Iba-1 immunoreactivity
PGE2 release reduction (%) (PGE2; Caudate): 67%
PGE2 release (ng/mg tissue) (PGE2; Caudate-Putamen): 1.84 + 0.035 ^d ng/mg tissue
PGE2 release (ng/mg tissue) (PGE2; Frontal lobe): 2.40 ± 0.046 ^d ng/mg tissue
PGE2 release reduction (%) (PGE2; Frontal lobe): 49%
PGE2 release (ng/mg tissue) (PGE2; Hippocampus): 2.33 ± 0.032 ^d ng/mg tissue
PGE2 release reduction (%) (PGE2; Hippocampus): 48%
PGE2 release (ng/mg tissue) (PGE2; Substantia nigra): 3.31 ± 0.079 ^d ng/mg tissue
PGE2 release reduction (%) (PGE2; Substantia nigra): 39%
COX-1 expression (COX-1; LPS challenged mice, all brain areas tested): significantly reduction of COX-1 expression
